24 molecules from patent US6500853B1, “Inhibitors of phospholipase enzymes” (Genetics Institute, LLC, priority 1998, dated 2002) can be followed below.

Read-outs that look alike come from different tables or passages of the source.

The term inhibition denotes the change of the read-out against control, counted positive when it falls. What is called % Inhibition is the change of the read-out against control, counted positive when it falls. A high value points to strong suppression.

The target in the assay is T1, cPLA2 (Homo sapiens, UniProt P47712).
T1 sequence (P47712 1-749): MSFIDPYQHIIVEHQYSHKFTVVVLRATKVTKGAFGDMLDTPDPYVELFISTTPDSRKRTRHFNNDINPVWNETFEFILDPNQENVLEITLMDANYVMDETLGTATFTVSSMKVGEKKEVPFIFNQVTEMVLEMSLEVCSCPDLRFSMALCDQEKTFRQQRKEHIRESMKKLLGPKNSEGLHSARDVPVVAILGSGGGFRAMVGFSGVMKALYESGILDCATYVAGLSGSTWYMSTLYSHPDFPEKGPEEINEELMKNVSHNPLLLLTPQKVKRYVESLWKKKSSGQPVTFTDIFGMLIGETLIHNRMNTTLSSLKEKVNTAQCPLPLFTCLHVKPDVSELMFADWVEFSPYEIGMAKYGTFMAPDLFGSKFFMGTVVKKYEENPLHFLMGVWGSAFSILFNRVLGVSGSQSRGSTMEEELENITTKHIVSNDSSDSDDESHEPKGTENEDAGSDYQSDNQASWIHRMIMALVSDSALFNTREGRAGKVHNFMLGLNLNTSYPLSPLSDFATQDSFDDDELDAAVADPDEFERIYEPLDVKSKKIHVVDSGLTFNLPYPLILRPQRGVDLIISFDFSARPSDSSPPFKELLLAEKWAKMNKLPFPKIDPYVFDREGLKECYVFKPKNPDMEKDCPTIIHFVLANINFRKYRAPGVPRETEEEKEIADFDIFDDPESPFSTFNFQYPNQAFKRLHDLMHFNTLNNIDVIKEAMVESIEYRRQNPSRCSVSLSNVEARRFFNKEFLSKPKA
Put plainly: Coumarin Assay (cPLA2 inhibition). In kind it is biochemical. Particulars: for inhibition at 2.5 µM: CONCENTRATION 2.5 micromolar. In short, it runs like this: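 Percent inhibition at the stated concentration, from the rate of 460 nm emission rise (360 nm excitation) per minute. Reaction started by adding 4 μg enzyme to compound and 60 μM 7-hydroxycoumarinyl 6-heptenoate in Hepes buffer pH 7.5 with 1 mM EDTA.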

In the case of `O=C(O)c1ccc(S(=O)(=O)CCc2c(CO)n(C(c3ccccc3)c3ccccc3)c3ccc(Cl)cc23)cc1` [Example 157, 4-({2-[1-benzhydryl-5-chloro-2-(hydroxymethyl)-1H-indol-3-yl]ethyl}sulfonyl)benzoic acid], the inhibition at 3.8 µM (Conc 3.8 uM, read-out: % Inhibition) is 50%.

The molecule `Cc1c(CC[S+]([O-])c2ccc(C(=O)O)cc2)c2cc(Cl)ccc2n1C(c1ccccc1)c1ccccc1` (centres unmarked) [Example 148, 4-{[2-(1-benzhydryl-5-chloro-2-methyl-1H-indol-3-yl)ethyl]sulfinyl}benzoic acid] showed an inhibition at 2.8 µM (Conc 2.8 uM) of 50%.

Where the note is “Conc 1.7 uM”, `O=C(O)c1ccc(OCCc2c(COCc3ccccn3)n(C(c3ccccc3)c3ccccc3)c3ccc(Cl)cc23)cc1` [Example 158, 4-(2-{1-benzhydryl-5-chloro-2-[(2-pyridinylmethoxy)methyl]-1H-indol-3-yl}ethoxy)benzoic acid] displayed an inhibition at 1.7 µM of 50%.

For `COc1cc(C(=O)O)ccc1Cc1cn(Cc2ccc3ccccc3c2)c2ccc(NC(=O)OC3CCCC3)cc12` [Example 4, 4-{[5-{[(cyclopentyloxy)carbonyl]amino}-1-(2-naphthylmethyl)-1H-indol-3-yl]methyl}3-methoxybenzoic acid], the inhibition at 5 µM (CONCENTRATION 5 micromolar, read-out: PERCENT INHIBITION @) stood at 50%. Also, the inhibition at 11 µM (CONCENTRATION 11 micromolar, read-out: PERCENT INHIBITION @) turned out to be 50%.

For the molecule `O=C(O)c1ccc(OCCc2c(CS(=O)(=O)c3ccccc3)n(C(c3ccccc3)c3ccccc3)c3ccc(Cl)cc23)cc1` [Example 153, 4-(2-{1-benzhydryl-5-chloro-2-[(phenylsulfonyl)methyl]-1H-indol-3-yl}ethoxy)benzoic acid], where the note is “Conc 3 uM, read-out: % Inhibition”, the inhibition at 3 µM worked out at 50%.

For the molecule `Cc1c(CCS(=O)(=O)c2ccc(C(=O)O)cc2)c2cc(Cl)ccc2n1C(c1ccccc1)c1ccccc1` [Example 147, 4-{[2-(1-benzhydryl-5-chloro-2-methyl-1H-indol-3-yl)ethyl]sulfonyl}benzoic acid], the inhibition at 2.4 µM (Conc 2.4 uM, read-out: % Inhibition) was found to be 50%.

Regarding `Cc1c(C(=O)O)c2cc(OCc3ccccc3)ccc2n1Cc1ccc2ccccc2c1` [Example 109, 5-(benzyloxy)-2-methyl-1-(2-naphthylmethyl)-1H-indole-3-carboxylic acid], the “PERCENT INHIBITION @” value (CONCENTRATION 50 micromolar) is given as 25%. In addition, under “CONCENTRATION 50 micromolar, read-out: PERCENT INHIBITION @”, the inhibition at 50 µM was determined as 28%.

On to `O=C(O)C(=O)c1cn(Cc2ccc(Cc3ccccc3)cc2)c2ccc(OCc3ccccc3)cc12` [Example 69, 2-[1-(4-benzylbenzyl)-5-(benzyloxy)-1H-indol-3-yl]-2-oxoacetic acid], for which the inhibition at 12.5 µM (CONCENTRATION 12.5 micromolar, read-out: PERCENT INHIBITION @) is 50%.

Regarding `O=C(O)C(=O)Nc1ccc(Cc2cn(C(c3ccccc3)c3ccccc3)c3cc(Cl)ccc23)cc1` [Example 125, 2-{4-[(1-benzhydryl-6-chloro-1H-indol-3-yl)methyl]anilino}-2-oxoacetic acid], for the setting “CONCENTRATION 0.8 micromolar, read-out: PERCENT INHIBITION @”, the inhibition at 0.8 µM was found to be 50%.

On to `O=C(O)c1ccc(OCCc2c(COCc3ccccc3)n(C(c3ccccc3)c3ccccc3)c3ccc(Cl)cc23)cc1` [Example 160, 4-(2-{1-benzhydryl-2-[(benzyloxy)methyl]-5-chloro-1H-indol-3-yl}ethoxy)benzoic acid], for which, under “Conc 2 uM, read-out: % Inhibition”, the inhibition at 2 µM was 50%.

Turning to `COc1cc(C(=O)NS(=O)(=O)c2ccccc2C)ccc1Cc1cn(CC2CC2)c2ccc(NC(=O)OC3CCCC3)cc12` [Example 21, Cyclopentyl N-{1-(cyclopropylmethyl)-3-[2-methoxy-4-({[(2-methylphenyl)sulfonyl]amino}carbonyl)benzyl]-1H-indol-5-yl}carbamate], the inhibition at 20 µM (CONCENTRATION 20 micromolar, read-out: PERCENT INHIBITION @) was 50%.

On to `COCc1c(CCOc2ccc(C(=O)O)cc2)c2cc(Cl)ccc2n1C(c1ccccc1)c1ccccc1` [Example 152, 4-{2-[1-benzhydryl-5-chloro-2-(methoxymethyl)-1H-indol-3-yl]ethoxy}benzoic acid], for which the inhibition at 3.3 µM (Conc 3.3 uM) was 50%.

Consider `Cc1c(CCS(=O)(=O)c2ccc(C(=O)O)cc2)c2cc(Cl)c(Cl)cc2n1C(c1ccccc1)c1ccccc1` [Example 142], for which the “% Inhibition” value (Conc 1.4 uM) is listed as 50%.

As to `COc1ccc(C(c2ccccc2)n2cc(Cc3ccc(C(=O)O)cc3OC)c3ccc(Cl)cc32)cc1` (centres unmarked) [Example 133, ′4-({6-chloro-1-[(4-methoxyphenyl)(phenyl)methyl]-1H-indol-3-yl}methyl)-3-methoxybenzoic acid], the “PERCENT INHIBITION @” value (CONCENTRATION 0.3 micromolar) is 50%.

Turning to `COc1cc(C(=O)NS(=O)(=O)c2ccccc2C)ccc1Cc1cn(C2CCCC2)c2ccc(NC(=O)OC3CCCC3)cc12` [Example 25, Cyclopentyl N-{1-cyclopentyl-3-[2-methoxy-4-({[(2-methylphenyl)sulfonyl]amino}carbonyl)benzyl]-1H-indol-5-yl}carbamate], the inhibition at 13 µM (CONCENTRATION 13 micromolar, read-out: PERCENT INHIBITION @) was 50%. Further, the inhibition at 17 µM (CONCENTRATION 17 micromolar, read-out: PERCENT INHIBITION @) was determined as 50%.

For `COc1cc(Cc2cn(C(c3ccccc3)c3ccccc3)c3cc(Cl)ccc23)ccc1OCC(=O)O` [Example 121, 2-{4-[(1-benzhydryl-6-chloro-1H-indol-3-yl)methyl]-2-methoxyphenoxy}acetic acid], the inhibition at 1.6 µM (CONCENTRATION 1.6 micromolar, read-out: PERCENT INHIBITION @) is 20%.

As to `O=C(O)CCC(=O)Nc1ccc(Cc2cn(C(c3ccccc3)c3ccccc3)c3cc(Cl)ccc23)cc1` [Example 123, 4-{4-[(1-benzhydryl-6-chloro-1H-indol-3-yl)methyl]anilino}-4-oxobutanooic acid], the “PERCENT INHIBITION @” value (CONCENTRATION 1.2 micromolar) was 50%.

Consider `COc1cc(C(=O)NS(=O)(=O)c2nnc(NC(C)=O)s2)ccc1Cc1cn(C(c2ccccc2)c2ccccc2)c2ccc(NC(=O)OC3CCCC3)cc12` [Example 34, cyclopentyl N-(3-{4-[({[5-(acetylamino)-1,3,4-thiadiazol-2-yl]sulfonyl}amino)carbonyl]-2-methoxybenzyl}-1-benzhydryl-1H-indol-5-yl)carbamate], for which the inhibition at 2 µM (CONCENTRATION 2 micromolar, read-out: PERCENT INHIBITION @) amounted to 50%. For the same molecule, the inhibition at 2.5 µM (read-out: PERCENT INHIBITION @) came to 57%.

`COc1cc(C(=O)NS(=O)(=O)c2c(C)noc2C)ccc1Cc1cn(C(c2ccccc2)c2ccccc2)c2ccc(NC(=O)OC3CCCC3)cc12` [Example 33, cyclopentyl N-{1-benzhydryl-3-[4-({[(3,5-dimethyl-4-isoxazolyl)sulfonyl]amino}carbonyl)-2-methoxybenzyl]-1H-indol-5-yl}carbamate]: the inhibition at 4.4 µM (CONCENTRATION 4.4 micromolar, read-out: PERCENT INHIBITION @) was determined as 50%. Besides, the inhibition at 4.9 µM (CONCENTRATION 4.9 micromolar, read-out: PERCENT INHIBITION @) was determined as 50%.

For `Cc1c(CCS(=O)(=O)c2ccc(C(=O)O)cc2)c2c(Cl)c(Cl)ccc2n1C(c1ccccc1)c1ccccc1` [Example 141, 4-{[2-(1-benzhydryl-4,5-dichloro-2-methyl-1H-indol-3-yl)ethyl]sulfonyl}benzoic acid], where the note is “Conc 1.4 uM, read-out: % Inhibition”, the inhibition at 1.4 µM was 50%.

For `COc1ccc2c(c1)c(CCS(=O)(=O)c1ccc(C(=O)O)cc1)c(C)n2C(c1ccccc1)c1ccccc1` [Example 144, 4-{[2-(1-benzhydryl-5-methoxy-2-methyl-1H-indol-3-yl)ethyl]sulfonyl}benzoic acid], where the note is “Conc 12 uM, read-out: % Inhibition”, the inhibition at 12 µM amounted to 50%.

In the case of `Cc1c(CCS(=O)(=O)c2ccc(C(=O)O)cc2)c2cc(F)ccc2n1C(c1ccccc1)c1ccccc1` [Example 139, 4-{[2-(1-benzhydryl-5-fluoro-2-methyl-1H-indol-3-yl)ethyl]sulfonyl}benzoic acid], the inhibition at 1.6 µM (Conc 1.6 uM, read-out: % Inhibition) came out at 50%.

In the case of `O=C(O)C1CC1Cc1cn(C(c2ccccc2)c2ccccc2)c2cc(Cl)c(F)cc12` (centres unmarked) [Example 127, 2-[(1-benzhydryl-6-chloro-5-fluoro-1H-indol-3-yl)methyl]cyclopropanecarboxylic acid], the inhibition at 1.1 µM (CONCENTRATION 1.1 micromolar, read-out: PERCENT INHIBITION @) worked out at 50%.

Consider `O=C(Nc1cccc(C(=O)O)c1)C(=O)c1c(CSc2ccc3ccccc3c2)n(Cc2ccc(Cl)cc2)c2ccc(OCc3ccccc3)cc12` [Example 112, 3-[(2-{5-(benzyloxy)-1-(4-chlorobenzyl)-2-[(2-naphthylsulfanyl)methyl]-1H-indol-3-yl}-2-oxoacetyl)amino]benzoic acid], for which the inhibition at 2.5 µM (read-out: PERCENT INHIBITION @) is 53%.
